The assay has as its system mice, ADJ-PC-20 plasma cell tumor sc, T/C %. In words: NCI In Vivo Anticancer Drug Screen. Data for tumor model ADJ-PC-20 Plasma Cell (subcutaneous) in unknown mice. Conditions: endpoint: mean tumor weight, schedule: Q01DX010 (ip), higher = larger tumour. Here is the method:
The antitumor activity of compounds was measured in mice bearing transplantable tumors. Survival or tumor size were measured and the results are expressed as the measurement made in the treated group (T) divided by the measurement made in the vehicle treated control group (C). The tumor model used in this assay is ADJ-PC-20 Plasma Cell (subcutaneous) in unknown mice

The mark [1] stands for this setting: dose: 125.0 mg/kg/injection, vehicle: carboxymethylcellulose (CMC).
[2] abbreviates: dose: 250.0 mg/kg/injection, vehicle: carboxymethylcellulose (CMC).
Where [3] appears, read: dose: 50.0 mg/kg/injection, vehicle: carboxymethylcellulose (CMC).
The mark [4] stands for this setting: dose: 100.0 mg/kg/injection, vehicle: carboxymethylcellulose (CMC).
Where [5] appears, read: dose: 62.5 mg/kg/injection, vehicle: carboxymethylcellulose (CMC).
Where [6] appears, read: dose: 0.63 mg/kg/injection, vehicle: carboxymethylcellulose (CMC).
Setting [7] is: dose: 1.25 mg/kg/injection, vehicle: carboxymethylcellulose (CMC).
Where [8] appears, read: dose: 0.12 mg/kg/injection, vehicle: carboxymethylcellulose (CMC).
Where [9] appears, read: dose: 0.25 mg/kg/injection, vehicle: carboxymethylcellulose (CMC).
Setting [10] is: dose: 0.5 mg/kg/injection, vehicle: carboxymethylcellulose (CMC).
Setting [11] is: dose: 4.0 mg/kg/injection, vehicle: carboxymethylcellulose (CMC).
[12] abbreviates: dose: 8.0 mg/kg/injection, vehicle: carboxymethylcellulose (CMC).

“And” between values parts separate entries of the source, which are not always exact repeats. Equal values may be shown once. Inconclusive results are not listed.

Turning to `C1CN1c1nc(N2CC2)nc(N2CC2)n1`, the T/C runs as follows: (dose: 0.01 mg/kg/injection, vehicle: saline) 38 % of control; (dose: 1.9 micrograms/kg/injection, vehicle: saline) 170 % of control; (dose: 7.8 micrograms/kg/injection, vehicle: saline) 100 % of control; (dose: 8.0 micrograms/kg/injection, vehicle: saline) 101 % of control; (dose: 15.0 micrograms/kg/injection, vehicle: saline) 99 % of control; (dose: 31.0 micrograms/kg/injection, vehicle: saline) 105 % of control. The T/C runs as follows: (dose: 31.2 micrograms/kg/injection, vehicle: saline) 37 % of control; (dose: 63.0 micrograms/kg/injection, vehicle: saline) 66 % of control.

`O=C1C(NC(=O)C2CCCCC2)=C(N2CC2)C(=O)C(NC(=O)C2CCCCC2)=C1N1CC1`: the T/C (dose: 37.5 mg/kg/injection, vehicle: carboxymethylcellulose (CMC)) is 102 % of control and 115 % of control.

For `CCOC(=O)NP(=O)(N1CC1(C)C)N1CC1(C)C` (configuration not stated), the T/C was 68 % of control under setting [1] and 20 % of control under setting [2].

`CS(=O)(=O)OCCCl`: the T/C reads like this: (dose: 12.5 mg/kg/injection, vehicle: carboxymethylcellulose (CMC)) 120 % of control; (dose: 25.0 mg/kg/injection, vehicle: carboxymethylcellulose (CMC)) 114 % of control; under setting [3], 76 % of control; under setting [4], 124 % of control.

With `OCC1OC(n2cnc3c(Cl)ncnc32)C(O)C1O` (configuration not stated), the T/C under setting [1] is 100 % of control; the T/C under setting [2] was 107 % of control; the T/C (dose: 500.0 mg/kg/injection, vehicle: carboxymethylcellulose (CMC)) was 93 % of control; the T/C (dose: 1000.0 mg/kg/injection, vehicle: carboxymethylcellulose (CMC)) was 35 % of control.

For the compound `CN(C)c1nc(N(C)C)nc(N(C)C)n1`, the T/C under setting [5] was 97 % of control and the T/C under setting [2] was 58 % of control.

With `COC12C(COC(N)=O)C3=C(C(=O)C(C)=C(N)C3=O)N1CC1C2N1C` (configuration not stated), the T/C is 81 % of control under setting [6]; 43 % of control under setting [7]; 13 % of control (dose: 2.5 mg/kg/injection, vehicle: carboxymethylcellulose (CMC)).

As for `Nc1nc(SCc2ccccc2)c2[nH]cnc2n1`, the T/C is 94 % of control (dose: 0.3 mg/kg/injection, vehicle: carboxymethylcellulose (CMC)); 81 % of control (dose: 1.2 mg/kg/injection, vehicle: carboxymethylcellulose (CMC)); 119 % of control (dose: 2.4 mg/kg/injection, vehicle: carboxymethylcellulose (CMC)); 9 % of control (dose: 4.7 mg/kg/injection, vehicle: carboxymethylcellulose (CMC)).

`C[C@@H]1C[C@H]2CC[C@H](O2)[C@H](C)C(=O)O[C@@H](C)C[C@@H]2CC[C@@H](O2)[C@@H](C)C(=O)O[C@H](C)C[C@H]2CC[C@H](O2)[C@H](C)C(=O)O[C@@H](C)C[C@@H]2CC[C@@H](O2)[C@@H](C)C(=O)O1`: the T/C is, setting by setting: under setting [3], 110 % of control; under setting [4], 120 % of control; (dose: 200.0 mg/kg/injection, vehicle: carboxymethylcellulose (CMC)) 99 % of control.

Consider `O=C(Nc1ccc(C2=NCCCN2)cc1)c1ccc(NC(=O)c2ccc(C3=NCCCN3)cc2)cc1`, for which the T/C is 99 % of control under setting [8]; 87 % of control under setting [9]; 109 % of control under setting [10]; 84 % of control (dose: 1.0 mg/kg/injection, vehicle: carboxymethylcellulose (CMC)); 94 % of control (dose: 2.0 mg/kg/injection, vehicle: carboxymethylcellulose (CMC)); 83 % of control under setting [11]. The T/C under setting [12] is 56 % of control.

For the compound `CC1CCOS(=O)O1` (configuration not stated), the T/C is 65 % of control (dose: 10.0 mg/kg/injection, vehicle: carboxymethylcellulose (CMC)); 50 % of control (dose: 20.0 mg/kg/injection, vehicle: carboxymethylcellulose (CMC)); 32 % of control (dose: 40.0 mg/kg/injection, vehicle: carboxymethylcellulose (CMC)).

For the compound `c1ccc(CNc2ncnc3[nH]ncc23)cc1`, the T/C reads like this: under setting [11], 110 % of control; under setting [12], 108 % of control; (dose: 16.0 mg/kg/injection, vehicle: carboxymethylcellulose (CMC)) 82 % of control; (dose: 32.0 mg/kg/injection, vehicle: carboxymethylcellulose (CMC)) 65 % of control.

As to `NC(=O)N(CCCl)N=O`, the T/C (dose: 1.75 mg/kg/injection, vehicle: carboxymethylcellulose (CMC)) is 93 % of control; the T/C (dose: 3.5 mg/kg/injection, vehicle: carboxymethylcellulose (CMC)) is 105 % of control; the T/C (dose: 7.0 mg/kg/injection, vehicle: carboxymethylcellulose (CMC)) was 102 % of control.

Turning to `Cc1cc(N(CCCl)CCCl)ccc1N=Nc1ccccc1C(=O)O`, the T/C is 60 % of control (dose: 0.95 mg/kg/injection, vehicle: carboxymethylcellulose (CMC)); 56 % of control (dose: 1.9 mg/kg/injection, vehicle: carboxymethylcellulose (CMC)); 38 % of control (dose: 3.8 mg/kg/injection, vehicle: carboxymethylcellulose (CMC)); 25 % of control (dose: 7.5 mg/kg/injection, vehicle: carboxymethylcellulose (CMC)).

As to `Nc1nc(=S)c2[nH]cnc2[nH]1`, the T/C reads like this: under setting [8], 112 % of control; under setting [9], 39 % of control and 62 % of control; under setting [10], 9 % of control; (dose: 62.0 micrograms/kg/injection, vehicle: carboxymethylcellulose (CMC)) 52 % of control; (dose: 125.0 micrograms/kg/injection, vehicle: carboxymethylcellulose (CMC)) 23 % of control; (dose: 250.0 micrograms/kg/injection, vehicle: carboxymethylcellulose (CMC)) 14 % of control.

Turning to `NC(Cc1ccc(N(CCCl)CCCl)cc1)C(=O)O` (configuration not stated), the T/C reads like this: (dose: 0.08 mg/kg/injection, vehicle: carboxymethylcellulose (CMC)) 99 % of control; (dose: 0.16 mg/kg/injection, vehicle: carboxymethylcellulose (CMC)) 107 % of control; under setting [6], 79 % of control; under setting [7], 9 % of control.

For `CS(=O)(=O)OCCCCOS(C)(=O)=O`, the T/C (dose: 6.25 mg/kg/injection, vehicle: methylcellulose (MC)) is 93 % of control; the T/C (dose: 12.5 mg/kg/injection, vehicle: methylcellulose (MC)) was 66 % of control; the T/C (dose: 25.0 mg/kg/injection, vehicle: methylcellulose (MC)) is 71 % of control and 72 % of control; the T/C (dose: 50.0 mg/kg/injection, vehicle: methylcellulose (MC)) is 42 % of control.

As for `O=C(Nc1ccc(NC2=NCCN2)cc1)c1ccc(C(=O)Nc2ccc(NC3=NCCN3)cc2)cc1`, the T/C was 98 % of control (dose: 4.0 mg/kg/injection, vehicle: saline) and 69 % of control (dose: 8.0 mg/kg/injection, vehicle: saline).

Consider `O=c1[nH]c(=O)n(C2CC(O)C(CO)O2)cc1I` (configuration not stated), for which the T/C runs as follows: (dose: 31.25 mg/kg/injection, vehicle: carboxymethylcellulose (CMC)) 49 % of control; under setting [5], 77 % of control; under setting [1], 32 % of control; under setting [2], 11 % of control.

These data come from PubChem BioAssay AID332 (DTP/NCI, 2004).
